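Method: 48-hour compound exposure of cells in 96-well plates, five concentrations, linear interpolation of endpoints. At the TGI there is no net growth.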
Experiments:
Assay in all cases: growth of human tumour cells (NCI), 48 h
K-562 leukemia = test system: K-562 leukemia
HL-60(TB) leukemia = test system: HL-60(TB) leukemia
UACC-257 melanoma = test system: UACC-257 melanoma
HCT-15 colon = test system: HCT-15 colon
RPMI-8226 leukemia = test system: RPMI-8226 leukemia
SN12C renal = test system: SN12C renal
CAKI-1 renal = test system: CAKI-1 renal
SF-295 CNS = test system: SF-295 CNS
HOP-62 NSCLC = test system: HOP-62 NSCLC
NCI-H460 lung = test system: NCI-H460 lung
HS 578T breast = test system: HS 578T breast
SNB-19 CNS = test system: SNB-19 CNS
TK-10 renal = test system: TK-10 renal
SK-MEL-28 melanoma = test system: SK-MEL-28 melanoma
NCI-H23 lung = test system: NCI-H23 lung
HCC-2998 colon = test system: HCC-2998 colon
MCF7 breast = test system: MCF7 breast
SK-MEL-2 melanoma = test system: SK-MEL-2 melanoma
M14 melanoma = test system: M14 melanoma
PC-3 prostate = test system: PC-3 prostate
HCT-116 colon = test system: HCT-116 colon
MALME-3M melanoma = test system: MALME-3M melanoma
SNB-75 CNS = test system: SNB-75 CNS
DU-145 prostate = test system: DU-145 prostate
BT-549 breast = test system: BT-549 breast
OVCAR-5 ovarian = test system: OVCAR-5 ovarian
RXF 393 renal = test system: RXF 393 renal
SK-MEL-5 melanoma = test system: SK-MEL-5 melanoma
OVCAR-3 ovarian = test system: OVCAR-3 ovarian
MDA-MB-435 = test system: MDA-MB-435
HT29 colon = test system: HT29 colon
T-47D breast = test system: T-47D breast
SF-268 CNS = test system: SF-268 CNS
SR leukemia = test system: SR leukemia
786-0 renal = test system: 786-0 renal
IGROV1 ovarian = test system: IGROV1 ovarian
SK-OV-3 ovarian = test system: SK-OV-3 ovarian
NCI/ADR-RES ovarian = test system: NCI/ADR-RES ovarian
U251 CNS = test system: U251 CNS
COLO 205 colon = test system: COLO 205 colon
MDA-N = test system: MDA-N
MOLT-4 leukemia = test system: MOLT-4 leukemia
A498 renal = test system: A498 renal
SF-539 CNS = test system: SF-539 CNS
UO-31 renal = test system: UO-31 renal
EKVX NSCLC = test system: EKVX NSCLC
UACC-62 melanoma = test system: UACC-62 melanoma
MDA-MB-231 breast = test system: MDA-MB-231 breast
OVCAR-8 ovarian = test system: OVCAR-8 ovarian
LOX IMVI melanoma = test system: LOX IMVI melanoma
KM12 colon = test system: KM12 colon
ACHN renal = test system: ACHN renal
OVCAR-4 ovarian = test system: OVCAR-4 ovarian
CCRF-CEM leukemia = test system: CCRF-CEM leukemia
A549 NSCLC = test system: A549 NSCLC
NCI-H226 lung = test system: NCI-H226 lung
NCI-H522 lung = test system: NCI-H522 lung
SW-620 colon = test system: SW-620 colon
HOP-92 NSCLC = test system: HOP-92 NSCLC

O=[N+]([O-])c1ccccc1N=Nc1c(O)[nH]c2ccc(Br)cc12
TGI (K-562 leukemia): > 68.3 µM | TGI (HL-60(TB) leukemia): > 68.8 µM | TGI (UACC-257 melanoma): > 50.3 µM | TGI (HCT-15 colon): > 56 µM | TGI (RPMI-8226 leukemia): > 68.6 µM | TGI (SN12C renal): 44.8 µM | TGI (CAKI-1 renal): 33.1 µM | TGI (SF-295 CNS): 34.3 µM | TGI (HOP-62 NSCLC): 28.3 µM | TGI (NCI-H460 lung): 25 µM | TGI (HS 578T breast): 46.2 µM | TGI (SNB-19 CNS): 45.2 µM | TGI (TK-10 renal): 30.8 µM | TGI (SK-MEL-28 melanoma): > 61.9 µM | TGI (NCI-H23 lung): 21.3 µM | TGI (HCC-2998 colon): 34.1 µM | TGI (MCF7 breast): 59.9 µM | TGI (SK-MEL-2 melanoma): 54.1 µM | TGI (M14 melanoma): 44.7 µM | TGI (PC-3 prostate): 33.3 µM | TGI (HCT-116 colon): > 67 µM | TGI (MALME-3M melanoma): > 100 µM | TGI (SNB-75 CNS): 36.1 µM | TGI (DU-145 prostate): 31.5 µM | TGI (BT-549 breast): > 47.3 µM | TGI (OVCAR-5 ovarian): 33.3 µM | TGI (RXF 393 renal): > 47.5 µM | TGI (SK-MEL-5 melanoma): > 37.7 µM | TGI (OVCAR-3 ovarian): 35.4 µM | TGI (MDA-MB-435): > 94.4 µM | TGI (HT29 colon): 29.3 µM | TGI (T-47D breast): > 78.7 µM | TGI (SF-268 CNS): 51.9 µM | TGI (SR leukemia): > 40.5 µM | TGI (786-0 renal): 40.4 µM | TGI (IGROV1 ovarian): 20.1 µM | TGI (SK-OV-3 ovarian): > 77.3 µM | TGI (NCI/ADR-RES ovarian): 40.6 µM | TGI (U251 CNS): > 53.3 µM | TGI (COLO 205 colon): 33.9 µM | TGI (MDA-N): > 60.5 µM | TGI (MOLT-4 leukemia): > 78.5 µM | TGI (A498 renal): > 45.8 µM | TGI (SF-539 CNS): > 100 µM | TGI (UO-31 renal): 44.7 µM | TGI (EKVX NSCLC): > 59 µM | TGI (UACC-62 melanoma): 66.8 µM | TGI (MDA-MB-231 breast): 25.2 µM | TGI (OVCAR-8 ovarian): 44 µM | TGI (LOX IMVI melanoma): > 61 µM | TGI (KM12 colon): 36.5 µM | TGI (ACHN renal): 22.9 µM | TGI (OVCAR-4 ovarian): > 59 µM | TGI (CCRF-CEM leukemia): 31.9 µM | TGI (A549 NSCLC): 21 µM | TGI (NCI-H226 lung): > 48.9 µM | TGI (NCI-H522 lung): > 34.8 µM | TGI (SW-620 colon): > 62.4 µM

CCOC(=O)C[C@@H]1C2(C=C[C@@]13CO3)OCC(C)(C)CO2
TGI (K-562 leukemia): > 100 µM | TGI (HL-60(TB) leukemia): > 100 µM | TGI (UACC-257 melanoma): > 100 µM | TGI (HCT-15 colon): > 100 µM | TGI (SN12C renal): > 100 µM | TGI (CAKI-1 renal): > 100 µM | TGI (SF-295 CNS): > 100 µM | TGI (HOP-62 NSCLC): > 100 µM | TGI (NCI-H460 lung): > 100 µM | TGI (HS 578T breast): > 100 µM | TGI (TK-10 renal): > 100 µM | TGI (SK-MEL-28 melanoma): > 100 µM | TGI (NCI-H23 lung): > 100 µM | TGI (HCC-2998 colon): > 100 µM | TGI (MCF7 breast): > 100 µM | TGI (SK-MEL-2 melanoma): > 100 µM | TGI (M14 melanoma): > 100 µM | TGI (PC-3 prostate): > 100 µM | TGI (HCT-116 colon): > 100 µM | TGI (MALME-3M melanoma): > 100 µM | TGI (SNB-75 CNS): > 100 µM | TGI (DU-145 prostate): > 100 µM | TGI (BT-549 breast): > 100 µM | TGI (OVCAR-5 ovarian): > 100 µM | TGI (RXF 393 renal): > 100 µM | TGI (SK-MEL-5 melanoma): > 100 µM | TGI (OVCAR-3 ovarian): > 100 µM | TGI (MDA-MB-435): > 100 µM | TGI (HT29 colon): > 100 µM | TGI (T-47D breast): > 100 µM | TGI (SF-268 CNS): > 100 µM | TGI (SR leukemia): > 100 µM | TGI (IGROV1 ovarian): > 100 µM | TGI (SK-OV-3 ovarian): > 100 µM | TGI (NCI/ADR-RES ovarian): > 100 µM | TGI (U251 CNS): > 100 µM | TGI (COLO 205 colon): > 100 µM | TGI (MDA-N): > 100 µM | TGI (MOLT-4 leukemia): > 100 µM | TGI (A498 renal): > 100 µM | TGI (SF-539 CNS): > 100 µM | TGI (UO-31 renal): > 100 µM | TGI (EKVX NSCLC): > 100 µM | TGI (UACC-62 melanoma): > 100 µM | TGI (MDA-MB-231 breast): > 100 µM | TGI (OVCAR-8 ovarian): > 100 µM | TGI (LOX IMVI melanoma): > 100 µM | TGI (OVCAR-4 ovarian): 97.4 µM | TGI (HOP-92 NSCLC): > 100 µM | TGI (CCRF-CEM leukemia): > 100 µM | TGI (A549 NSCLC): > 100 µM | TGI (NCI-H226 lung): > 100 µM | TGI (SW-620 colon): > 100 µM

From PubChem BioAssay (NCI)
